# From paper PMC7301643 (Biochemistry, 2020)
# Legend:
# [1] = molecular target: T1, capping protein (CP, CPα1β2) (Mus musculus, UniProt P47753+P47757); assay: Isothermal calorimetry; format: binding; settings: for ΔG°obs, ITC: ΔG° = −RT ln Ka
# [2] = molecular target: CP:F-actin barbed end (Mus musculus, UniProt P47753+P47757); assay: Pyrene-actin polymerization; format: biochemical, Oryctolagus cuniculus (actin); settings: at concentrations higher than 1 μM
# [3] = molecular target: T1, capping protein (CP, CPα1β2); assay: Fluorescence anisotropy titration of CP into TAMRA-labeled CPI-motif peptide; format: binding
# [4] = molecular target: CP bound to F-actin (Mus musculus, UniProt Q5RKN9+Q923G3); assay: Kd for CPI binding to CP bound to F-actin, calculated from thermodynamic cycle; set-up: species or system Oryctolagus cuniculus (actin)
# [5] = independent experiment 1 (first line), 25 °C, pH 7.2
# [6] = independent experiment 2 (second line)
substance,measurement,setting,value
Ac-WASHCAP-NH2 [WASHCAP],"N (stoichiometry), ITC",[1]; [5],0.985 ± 0.004
same,"TΔS°obs, ITC",[1]; [5],-59 kJ/mol
same,"ΔH°obs, ITC",[1]; [5],-103 ± 0.42 kJ/mol
same,"ΔG°obs, ITC",[1]; [5],-44.18 ± 0.17 kJ/mol
same,"N (stoichiometry), ITC",[1]; [6],0.971 ± 0.009
same,"TΔS°obs, ITC",[1]; [6],-76.6 kJ/mol
same,"ΔH°obs, ITC",[1]; [6],-121 ± 1.7 kJ/mol
same,"ΔG°obs, ITC",[1]; [6],-44.35 ± 0.418 kJ/mol
same,interference of peptide with actin polymerization,[2],interfered with polymerization
same,Kd,[3],0.0085 ± 0.0008 µM
same,Kd,[4],0.11 ± 0.01 µM
